Source: patent US5900488A, “Method for treating mycosis using imidazolylacetonitrile derivatives” (Nihon Nohyaku Co., Ltd., priority 1995, dated 1999)
Converted amounts (≈) assume the structure as drawn. Where two headings read alike, the source gives them in different places.

What was measured:
[1] = tested on: Trichophyton mentagrophytes; assay: In vitro activity against Trichophyton mentagrophytes, MIC by twofold macro-broth dilution (Test Example 1); assay type: cell-based; conditions: Trichophyton mentagrophytes, 7 days at 27° C.
Method: (§1) Minimum inhibitory concentrations (MICs) were determined by the twofold macro-broth dilution method with Sabouraud's glucose broth which constituted with 1% bactopeptone and 4% glucose. To each tube containing 9.8 ml of the broth, 0.1 ml of each testing compound dissolved in DMSO and 0.1 ml of a conidial suspension (1×10^6 conidia/ml) were added. The fungal growth was observed after incubation for 7 days at 27° C. The MIC was determined as the lowest drug concentration which prevented a visible fungal growth.

Candida albicans = assay: In vitro antifungal activity against Candida albicans, MIC by twofold micro-broth dilution (Test Example 3); assay type: cell-based; conditions: 48 hours at 35° C., pH 7.0, read-out: MIC
Method: MICs were determined by the twofold micro-broth dilution method with RPMI 1640 buffered with morphorino-propanesulfonic acid to a final molarity of 0.165M (pH 7.0). One hundred μl of a yeast cell suspension (1 to 5×10^3 cells/ml) and 100 μl of the compound-containing medium were pipetted into each well flat-bottomed microtiter plates. After incubation for 48 hours at 35° C., the turbidity of each well was measured at 630 nm.

Trichophyton rubrum = assay: In vitro activity against Trichophyton rubrum, MIC by twofold macro-broth dilution (Test Example 1); assay type: cell-based
Method: as §1

dermatophytes = assay: Antifungal activity against dermatophytes compared with racemic mixtures (general statement); conditions: especially highly sensitive strains
Aspergillus fumigatus = assay: In vitro antifungal activity against Aspergillus fumigatus, MIC by twofold agar dilution (Test Example 4); assay type: cell-based; conditions: read-out: MIC
Method: MICs were determined by the twofold agar dilution method with casitone agar which constituted with 0.9% bactocasitone, 1% bacto-yeast extract, 2% glucose, 0.1% KH2 PO4, 0.1% Na2 HPO4, 1% Na3 C6 H5 O7 and 1.6% agar. A loopful of each inoculum (1×10^6 conidia/ml) was streaked onto the agar plate containing a compound, and a fungal growth was observed after incubation for 48 hours at 35° C. The MIC was determined as the lowest drug concentration which prevented a visible fungal growth.

N#C/C(=C1/SC[C@@H](c2ccc(Cl)cc2Cl)S1)n1ccnc1 [Compound (B), R-(-)-(E)-[4-(2,4-dichlorophenyl)-1,3-dithiolan-2-ylidene]-1-imidazolylacetonitrile]
MIC ([1]; IFO5466, 168 h, strain IFO 5466): 0.02 µg/mL (≈ 0.0565 µM) | MIC ([1]; IFO5809, 168 h, strain IFO 5809): 0.005 µg/mL (≈ 0.0141 µM) | MIC ([1]; IFO5810, 168 h, strain IFO 5810): 0.005 µg/mL (≈ 0.0141 µM) | MIC ([1]; IFO5811, 168 h, strain IFO 5811): 0.01 µg/mL (≈ 0.0282 µM) | MIC ([1]; IFO5929, 168 h, strain IFO 5929): 0.01 µg/mL (≈ 0.0282 µM) | MIC ([1]; TIMM1189, 168 h, strain TIMM 1189): 0.01 µg/mL (≈ 0.0282 µM) | MIC ([1]; TIMM1814, 168 h, strain TIMM 1814): 0.02 µg/mL (≈ 0.0565 µM) | MIC ([1]; TIMM1815, 168 h, strain TIMM 1815): 0.02 µg/mL (≈ 0.0565 µM) | MIC ([1]; TIMM1817, 168 h, strain TIMM 1817): 0.01 µg/mL (≈ 0.0282 µM) | MIC ([1]; TIMM2789, 168 h, strain TIMM 2789): 0.0025 µg/mL (≈ 0.00706 µM) | MIC (Candida albicans; IFO0197, strain IFO 0197, 80% inhibition): 0.0625 µg/mL (≈ 0.176 µM) | MIC (Candida albicans; IFO0579, strain IFO 0579, 80% inhibition): 0.0313 µg/mL (≈ 0.0883 µM) | MIC (Candida albicans; IFO1269, strain IFO 1269, 80% inhibition): 0.0625 µg/mL (≈ 0.176 µM) | MIC (Candida albicans; IFO1270, strain IFO 1270, 80% inhibition): 0.25 µg/mL (≈ 0.706 µM) | MIC (Candida albicans; IFO1385, strain IFO 1385, 80% inhibition): 0.0625 µg/mL (≈ 0.176 µM) | MIC (Candida albicans; IFO1386, strain IFO 1386, 80% inhibition): 0.125 µg/mL (≈ 0.353 µM) | MIC (Candida albicans; TIMM3163, strain TIMM 3163, 80% inhibition): 16 µg/mL (≈ 45.2 µM) | MIC (Candida albicans; TIMM3164, strain TIMM 3164, 80% inhibition): 0.5 µg/mL (≈ 1.41 µM) | MIC (Candida albicans; TIMM3165, strain TIMM 3165, 80% inhibition): 2 µg/mL (≈ 5.65 µM) | MIC (Candida albicans; TIMM3166, strain TIMM 3166, 80% inhibition): 1 µg/mL (≈ 2.82 µM) | sensitivity (in words) (Trichophyton rubrum): highly sensitive | MIC (Trichophyton rubrum; IFO5467, 168 h, strain IFO 5467, 7 days at 27° C.): 0.0025 µg/mL (≈ 0.00706 µM) | MIC (Trichophyton rubrum; IFO5807, 168 h, strain IFO 5807, 7 days at 27° C.): 0.0025 µg/mL (≈ 0.00706 µM) | MIC (Trichophyton rubrum; IFO5808, 168 h, strain IFO 5808, 7 days at 27° C.): 0.0025 µg/mL (≈ 0.00706 µM) | MIC (Trichophyton rubrum; IFO6203, 168 h, strain IFO 6203, 7 days at 27° C.): 0.0013 µg/mL (≈ 0.00367 µM) | MIC (Trichophyton rubrum; IFO6204, 168 h, strain IFO 6204, 7 days at 27° C.): 0.0025 µg/mL (≈ 0.00706 µM) | MIC (Trichophyton rubrum; IFO9185, 168 h, strain IFO 9185, 7 days at 27° C.): 0.0013 µg/mL (≈ 0.00367 µM) | MIC (Trichophyton rubrum; TIMM1822, 168 h, strain TIMM 1822, 7 days at 27° C.): 0.00063 µg/mL (≈ 0.00178 µM) | MIC (Trichophyton rubrum; TIMM1823, 168 h, strain TIMM 1823, 7 days at 27° C.): 0.0013 µg/mL (≈ 0.00367 µM) | MIC (Trichophyton rubrum; TIMM1824, 168 h, strain TIMM 1824, 7 days at 27° C.): 0.0013 µg/mL (≈ 0.00367 µM) | MIC (Trichophyton rubrum; TIMM1830, 168 h, strain TIMM 1830, 7 days at 27° C.): 0.00063 µg/mL (≈ 0.00178 µM) | antifungal activity relative to the racemic mixtures (dermatophytes): several times | MIC (Aspergillus fumigatus; TIMM0063, strain TIMM 0063, 48 hours at 35° C.): 0.00063 µg/mL (≈ 0.00178 µM) | MIC (Aspergillus fumigatus; TIMM0078, strain TIMM 0078, 48 hours at 35° C.): 0.00063 µg/mL (≈ 0.00178 µM) | MIC (Aspergillus fumigatus; TIMM1728, strain TIMM 1728, 48 hours at 35° C.): ≤ 0.00031 µg/mL | MIC (Aspergillus fumigatus; TIMM1767, strain TIMM 1767, 48 hours at 35° C.): 0.00063 µg/mL (≈ 0.00178 µM)
